# Data: ChEMBL document CHEMBL3045191, “Effect of soil type on adsorption-desorption, mobility, and activity of the herbicide norflurazon” (J Agric Food Chem, 2004)
# Key:
# Type in all cases: functional, organism-based
# Glycine max [1] = assay: Herbicidal activity against Glycine max (soybean) grown in slit loam soil at pH 7.6 assessed as chlorophyll bleaching effect on shoots compound treated to soil measured after 10 days relative to untreated control
# Glycine max [2] = assay: Herbicidal activity against Glycine max (soybean) grown in sandy clay loam soil at pH 7.9 assessed as chlorophyll bleaching effect on shoots compound treated to soil measured after 10 days relative to untreated control
# Glycine max [3] = assay: Herbicidal activity against Glycine max (soybean) grown in sandy soil at pH 8.0 assessed as chlorophyll bleaching effect on shoots compound treated to soil measured after 10 days relative to untreated control
# Glycine max [4] = assay: Herbicidal activity against Glycine max (soybean) grown in clay soil at pH 8.0 assessed as chlorophyll bleaching effect on shoots compound treated to soil measured after 10 days relative to untreated control
# Glycine max [5] = assay: Herbicidal activity against Glycine max (soybean) grown in slit loam soil at pH 6.0 assessed as chlorophyll bleaching effect on shoots compound treated to soil measured after 10 days relative to untreated control
# Glycine max [6] = assay: Herbicidal activity against Glycine max (soybean) grown in loam soil at pH 5.8 assessed as chlorophyll bleaching effect on shoots compound treated to soil measured after 10 days relative to untreated control
# Glycine max [7] = assay: Herbicidal activity against Glycine max (soybean) grown in sandy clay loam soil at pH 5.7 assessed as chlorophyll bleaching effect on shoots compound treated to soil measured after 10 days relative to untreated control
# Glycine max [8] = assay: Herbicidal activity against Glycine max (soybean) grown in loam soil at pH 5.5 assessed as chlorophyll bleaching effect on shoots compound treated to soil measured after 10 days relative to untreated control
compound,measurement,setting,value
CNc1cnn(-c2cccc(C(F)(F)F)c2)c(=O)c1Cl [NORFLURAZONE],IC50,Glycine max [1],1.68 mg/kg
same,IC50,Glycine max [2],0.22 mg/kg
same,IC50,Glycine max [3],0.08 mg/kg
same,IC50,Glycine max [4],1.04 mg/kg
same,IC50,Glycine max [5],1.94 mg/kg
same,IC50,Glycine max [6],1.98 mg/kg
same,IC50,Glycine max [7],0.43 mg/kg
same,IC50,Glycine max [8],0.87 mg/kg
